In patent publication US5741811A, “Polythiophene anti-tumor agents” (Purdue Research Foundation, priority 1996, dated 1998):
Where two headings read alike, the source gives them in different places.

Columns and labels:
Experiment in all cases: NCI human tumor cell line panel growth inhibition
Format in all cases: cell-based
[1] = tested on: HOP-62 lung cancer cells; conditions: Homo sapiens, read-out: Log10 GI50 (converted)
[2] = tested on: NCI-H23 lung cancer cells; conditions: read-out: Log10 GI50 (converted)
[3] = tested on: NCI-H322M lung cancer cells; conditions: Homo sapiens, read-out: Log10 GI50 (converted)
[4] = tested on: NCI-H460 lung cancer cells; conditions: Homo sapiens, read-out: Log10 GI50 (converted)
[5] = tested on: COLO-205 colon cancer cells; conditions: Homo sapiens
[6] = tested on: HCC-2998 colon cancer cells; conditions: Homo sapiens, read-out: Log10 GI50 (converted)
[7] = tested on: HCT-116 colon cancer cells; conditions: Homo sapiens, read-out: Log10 GI50 (converted)
[8] = tested on: HCT-15 colon cancer cells; conditions: Homo sapiens, read-out: Log10 GI50 (converted)
[9] = tested on: HT29 colon cancer cells; conditions: Homo sapiens, HT-29, read-out: Log10 GI50 (converted)
[10] = tested on: OVCAR-8 ovarian cancer cells; conditions: Homo sapiens, read-out: Log10 GI50 (converted)
Procedure: (§1) The first screen measures the cytotoxicity against a panel of sixty different human tumor cell lines. This assay provides data regarding the general cytotoxicity of an individual compound.
(§2) The length of a bar is indicative of differential cytotoxicity against a specific type of tumor cells or tumor panels.
(§3) The antitumor cytotoxicity of the thiophene compounds tested in the first two in vitro assays was measured by a microculture assay using either 3-(4,5-dimethylthiazol-2-yl)-2,5-diphenyltetrazolium bromide (MTT) or sulforhodamine B (SRB). [M. R. Boyd in "Principles and Practices of Oncology," V. T. DeVita, Jr., S. Hellman and S. A. Rosenberg (Eds.), Vol. 3, PPO Updates, Number 10, 1989.] This assay has an advantage over in vivo assay in that results are obtained within a week as opposed to several months. The assay was carried out in 96-well microtiter plates. The MTT assay is based on the production of a dark blue formazan product by dehydrogenase in the mitochondria of live tumor cells after exposure to drug for 6 days [M. C. Alley, D. A. Scudiero, A. Monks, M. L. Hursey, M. J. Czerwinski, D. L. Fine, B. J. Abbott, J. G. Mayo, R. H. Shoemaker and M. R. Boyd, Cancer Res., 48, 589, 1988.] Thus, only live cells are stained and can be measured at 570 nm. The SRB assay is based on the binding of the anionic group to the basic amino acid residues of cellular proteins after exposure of tumor cells to drug for 2 days [P. Skehan, R. Storeng, D. Scudiero, A. Monks, J. McMahon, D. Vistica, J. T. Warren, H. Bohesch, S. Kenney and M. R. Boyd, J. Nat. Cancer Inst., 82, 1107, 1990.] Thus, the total protein (viability) can be measured at 564 nm.

[11] = tested on: SW-620 colon cancer cells; conditions: Homo sapiens, read-out: Log10 GI50 (converted)
Procedure: as §1, §2, §3

[12] = tested on: SF-268 CNS cancer cells; conditions: read-out: Log10 GI50 (converted)
[13] = tested on: SF-295 CNS cancer cells; conditions: read-out: Log10 GI50 (converted)
[14] = tested on: SNB-75 CNS cancer cells; conditions: Homo sapiens, read-out: Log10 GI50 (converted)
[15] = tested on: SNB-19 CNS cancer cells; conditions: Homo sapiens, read-out: Log10 GI50 (converted)
[16] = tested on: U251 CNS cancer cells; conditions: Homo sapiens, U-251, read-out: Log10 GI50 (converted)
[17] = tested on: MALME-3M melanoma cells; conditions: read-out: Log10 GI50 (converted)
[18] = tested on: M-14 melanoma cells; conditions: M14, read-out: Log10 GI50 (converted)
[19] = tested on: DU-145 prostate cancer cells; conditions: read-out: Log10 GI50 (converted)
Text: (§4) The cytotoxic activity of the present polythiophene compounds have been measured utilizing three different assays or screens. The first screen measures the cytotoxicity against a panel of sixty different human tumor cell lines. This assay provides data regarding the general cytotoxicity of an individual compound. In particular this type of assay is useful in identifying compounds which have enhanced cytotoxic activity against slow growing tumors as compared to faster growing tumor cells such as leukemia tumor cell lines. The identification of such compounds is critical since previously identified antitumor agents have low cytotoxic activity against slower growing tumors. […] The specificity of a cytotoxic compound for tumor cell lines relative to normal cells is an important characteristic of an effective antitumor agent.
as §2, §3

[20] = tested on: HOP-92 lung cancer cells; conditions: Homo sapiens, read-out: Log10 GI50 (converted)
Text: as §4, §2, §3

[21] = tested on: KM12 colon cancer cells; conditions: Homo sapiens, read-out: Log10 GI50 (converted)
Text: as §4, §2, §3

[22] = tested on: MCF7 breast cancer cells; conditions: read-out: Log10 GI50 (converted)
Text: as §4, §2, §3

[23] = tested on: MDA-MB-231/ATCC breast cancer cells; conditions: read-out: Log10 GI50 (converted)
Text: as §4, §2, §3

[24] = tested on: MDA-N breast cancer cells; conditions: read-out: Log10 GI50 (converted)
Text: as §4, §2, §3

[25] = tested on: OVCAR-4 ovarian cancer cells; conditions: Homo sapiens, read-out: Log10 GI50 (converted)
Text: as §4, §2, §3

[26] = tested on: PC-3 prostate cancer cells; conditions: read-out: Log10 GI50 (converted)
Text: as §4, §2, §3

[27] = tested on: SK-MEL-28 melanoma cells; conditions: read-out: Log10 GI50 (converted)
Text: as §4, §2, §3

[28] = tested on: SK-MEL-5 melanoma cells; conditions: read-out: Log10 GI50 (converted)
Text: as §4, §2, §3

[29] = tested on: UACC-257 melanoma cells; conditions: Homo sapiens, read-out: Log10 GI50 (converted)
[30] = tested on: IGROV-1 ovarian cancer cells; conditions: Homo sapiens, read-out: Log10 GI50 (converted)
[31] = tested on: OVCAR-3 ovarian cancer cells; conditions: Homo sapiens; OVCAR-3, ovarian cancer; read-out: Log10 GI50 (converted)
[32] = tested on: OVCAR-5 ovarian cancer cells; conditions: Homo sapiens, read-out: Log10 GI50 (converted)
[33] = tested on: 786-0 renal cancer cells; conditions: read-out: Log10 GI50 (converted)
[34] = tested on: A-498 renal cancer cells; conditions: Homo sapiens, A498, read-out: Log10 GI50 (converted)
[35] = tested on: CAKI-1 renal cancer cells; conditions: Homo sapiens; CAKI-1, renal cancer; read-out: Log10 GI50 (converted)
[36] = tested on: RXF-393 renal cancer cells; conditions: Homo sapiens, read-out: Log10 GI50 (converted)
[37] = tested on: TK-10 renal cancer cells; conditions: Homo sapiens, read-out: Log10 GI50 (converted)
[38] = tested on: T-47D breast cancer cells; conditions: T47D, read-out: Log10 GI50 (converted)
Procedure: The assay was carried out in 96-well microtiter plates. The MTT assay is based on the production of a dark blue formazan product by dehydrogenase in the mitochondria of live tumor cells after exposure to drug for 6 days [M. C. […] The SRB assay is based on the binding of the anionic group to the basic amino acid residues of cellular proteins after exposure of tumor cells to drug for 2 days [P. Skehan, R. Storeng, D. Scudiero, A. Monks, J. McMahon, D. Vistica, J. T. Warren, H. Bohesch, S. Kenney and M. R. Boyd, J. Nat.

[39] = tested on: NCI-H226 lung cancer cells; conditions: Homo sapiens, read-out: Log10 GI50 (converted)
[40] = tested on: LOX IMVI melanoma cells; conditions: read-out: Log10 GI50 (converted)
[41] = tested on: SK-MEL-2 melanoma cells; conditions: read-out: Log10 GI50 (converted)
[42] = tested on: BT-549 breast cancer cells; conditions: read-out: Log10 GI50 (converted)
Text: as §4, §2, §3

[43] = tested on: HS 578T breast cancer cells; conditions: read-out: Log10 GI50 (converted)
Text: as §4, §2, §3

[44] = tested on: MCF7/ADR-RES breast cancer cells; conditions: read-out: Log10 GI50 (converted)
Text: as §4, §2, §3

[45] = tested on: MDA-MB-435 breast cancer cells; conditions: read-out: Log10 GI50 (converted)
Text: as §4, §2, §3

[46] = tested on: SF-539 CNS cancer cells; conditions: read-out: Log10 GI50 (converted)
Text: as §4, §2, §3

[47] = tested on: UACC-62 melanoma cells; conditions: Homo sapiens, read-out: Log10 GI50 (converted)
[48] = tested on: ACHN renal cancer cells; conditions: read-out: Log10 GI50 (converted)

OCc1ccc(-c2ccc(-c3ccsc3)s2)s1 [drawing 37]
GI50 [1]: 20.4 µM | GI50 [2]: 24 µM | GI50 [3]: 16.2 µM | GI50 [4]: 25.1 µM | GI50 ([5]; COLO 205, read-out: Log10 GI50 (converted)): 0.912 µM | GI50 [6]: 0.977 µM | GI50 [7]: 0.363 µM | GI50 [8]: 58.9 µM | GI50 [9]: 13.8 µM | GI50 [10]: 57.5 µM | GI50 [11]: 47.9 µM | GI50 [12]: 53.7 µM | GI50 [13]: 35.5 µM | GI50 [14]: 30.9 µM | GI50 [15]: 33.1 µM | GI50 [16]: 10.7 µM | GI50 [17]: 38.9 µM | GI50 [18]: 42.7 µM | GI50 [19]: 66.1 µM | GI50 [20]: 38.9 µM | GI50 [21]: 83.2 µM | GI50 [22]: 0.257 µM | GI50 [23]: 28.2 µM | GI50 [24]: 0.501 µM | GI50 [25]: 25.1 µM | GI50 [26]: 51.3 µM | GI50 [27]: 36.3 µM | GI50 [28]: 41.7 µM | GI50 [29]: 0.191 µM | GI50 [30]: 0.219 µM | GI50 [31]: 0.158 µM | GI50 [32]: 0.417 µM | GI50 [33]: 57.5 µM | GI50 [34]: 0.115 µM | GI50 [35]: 0.0229 µM | GI50 [36]: 20.4 µM | GI50 [37]: 0.204 µM | GI50 [38]: 0.339 µM

OCc1csc(-c2ccc(-c3ccc(CO)s3)s2)c1 [drawing 38]
GI50 [2]: > 10 µM | GI50 [39]: 0.0141 µM | GI50 [3]: 4.27 µM | GI50 [4]: 0.0389 µM | GI50 ([5]; COLO-205, colon cancer, read-out: Log10 GI50 (converted)): 0.191 µM | GI50 [6]: 5.89 µM | GI50 [7]: 0.107 µM | GI50 [8]: > 10 µM | GI50 [9]: 0.234 µM | GI50 [10]: > 10 µM | GI50 [12]: > 10 µM | GI50 [13]: > 10 µM | GI50 [14]: 2 µM | GI50 [15]: > 10 µM | GI50 [16]: 5.62 µM | GI50 [40]: > 10 µM | GI50 [17]: > 10 µM | GI50 [18]: > 10 µM | GI50 [41]: > 10 µM | GI50 [42]: > 10 µM | GI50 [19]: > 10 µM | GI50 [20]: 9.33 µM | GI50 [43]: 7.76 µM | GI50 [21]: > 10 µM | GI50 [22]: 0.138 µM | GI50 [44]: > 10 µM | GI50 [23]: > 10 µM | GI50 [45]: 4.37 µM | GI50 [24]: 9.55 µM | GI50 [25]: 0.302 µM | GI50 [26]: > 10 µM | GI50 [46]: > 10 µM | GI50 [27]: > 10 µM | GI50 [28]: > 10 µM | GI50 [29]: 0.038 µM | GI50 [47]: 0.182 µM | GI50 [30]: 0.145 µM | GI50 [31]: 0.0692 µM | GI50 [32]: 0.126 µM | GI50 [34]: 0.0158 µM | GI50 [48]: > 10 µM | GI50 [35]: 0.0251 µM | GI50 [36]: > 10 µM | GI50 [37]: 0.0794 µM | GI50 [38]: 0.224 µM
